# Results taken from patent US11534283B2 (priority 2017, dated 2022).
# Entries after “also recorded” stand apart in the source; their conditions may differ.
# Experiments:
# [1] = system: cells labeled adjacent the implantation site in the adult mouse cortex; format: cell-based
# Protocol: Implantable devices were filled with α-bungarotoxin fused to the dye Alexa Fluor 555 (α-BTX Alexa 555) in PBS at a concentration of 0.3 mg/mL. Animals were treated with the implantable device for 2 hours prior to sacrifice. Tissues were prepared for live cell electrophysiology assays (patch clamp) and fluorescence imaging.
# Implantable devices filled with fluorescently labeled α-bungarotoxin (α-BTX) were implanted and the release was studied via imaging and live cell electrophysiology assays.
# [2] = system: adult mouse cortex; conditions: in vivo
Compound,"electrophysiological activity of agonist AR-R17779 in the control group ([1]; cells labeled with control (Alexa 555) released from the device, patch clamp)",labeling of individual cells (uptake) [2],localization of fluorescence after release from the implantable device [2],electrophysiological response of the α-BTX labeled cell to agonist AR-R17779 [1]
O=C1NCC2(CN3CCC2CC3)O1 (stereo not shown) [AR-R17779],inhibitory activity,,,
α-bungarotoxin [α-BTX-Alexa 555],,individual cells were clearly labeled; also recorded: labeling individual cells,local to the implantation site; also recorded: adjacent the implantation site,no activity
